Reference: patent US11180483B2, “Substituted reverse pyrimidine Bmi-1 inhibitors” (PTC Therapeutics, Inc., priority 2012, dated 2021)

Test system: Bmi-1
Assay: Sandwich ELISA Assay (Bmi-1 ELISA) in HT-1080 cells
Assay type: cell-based
Procedure: Cell Seeding and Compound Treatment (Day 1):
HT-1080 cells were seeded at 8000 cells/well (50 μL) in 96-well tissue culture plates. After the cells became adherent (3-4 hours), 2× diluted stocks of test compounds in 50 μL DMEM containing 1% DMSO (final DMSO concentration was 0.5%) were added and the plates were incubated at 37° C. under 5% CO2 for 40-48 hours.
ELISA Plate First Antibody Preparation (Day 2):
The First Antibody (Millipore Mouse, monoclonal to mouse Bmi-1, clone F6, catalog #05-637) diluted to 2 μg/mL in PBS was added (100 μL) to each well of a Nunc MaxiSorp 96-well ELISA plate. The plate was covered with a plate seal and allowed to stand overnight.
Cell Lysate Preparation (Day 3):
Fresh 1× Lysis buffer was prepared on the day of the assay as follows: 1 mM EDTA, 150 mM NaCl, 0.5% Triton-X 100, 10 mM NaF, 20 mM B-Glycerophosphate, 1 mM DTT (in PBS, pH 7.2-7.4) and 1× HALT protease inhibitor cocktail (Pierce #78410).
The 1× Lysis Buffer (40 μL) was added to each well and the plate was shaken for 5-10 minutes on an orbital shaker to allow cell lysis, then diluent (1% BSA in PBS in 0.5% NP40) (100 μL) was added to each well.
A standard curve was prepared at the following Bmi-1 concentrations: 8000, 4000, 2000, 1000, 500, 250, 125, 0 pg/mL The Bmi-1 Recombinant Protein Standard (Novus Biologicals PCGF4 Recombinant Protein (P01), catalog #H00000648-P01) used to prepare the standard curve was stored at −80° C. On first thaw, the Bmi-1 Recombinant Protein Standard was diluted to […] in Blocking Buffer (1% BSA in PBS; BSA: Fisher Scientific Catalog #1600-100). Aliquots were taken and refrozen at −80° C. The aliquots may be kept at 4° C. and reused after first thaw, but only within 1-2 weeks. The Bmi-1 Recombinant Protein Standard contains a GST-fusion tag that appears around 70 Kda on Western Blot.
The prepared ELISA plate was washed 3× with Wash Buffer (0.05% Tween-20 in PBS). The final wash was removed from the plate and the plate was blotted dry. Blocking Buffer (300 μL) (1% BSA in PBS) was added to each well. The plate was covered with a plate seal and incubated at room temperature for 1 hour. The blocked plate was washed 3× with Wash Buffer, then the final wash was removed and the plate was blotted dry. The previously prepared samples and standards were added (100 μL/well) and the plate was covered with a plate seal and incubated at 4° C. overnight.
The prepared ELISA plate was removed from 4° C., incubated at room temperature for 30 minutes, then washed and blotted dry as previously described for Day 3. The Second Antibody (Cell Signaling Rabbit anti-Bmi-1, Cat #2830) diluted to 1:600 in Blocking Buffer was added (100 μL) to each well, except as needed for background control wells. The plate was covered with a plate seal and incubated for 1.5 hrs at room temperature.
The ELISA plate was washed and blotted dry as previously described. The Third Antibody (Cell Signaling HRP conjugated anti-rabbit IgG (CellSignaling, Cat #:7074) diluted to 1:300 in Blocking Buffer was added (100 μL) to each well, except as needed for background control wells. The plate was incubated for 1 hr at room temperature.
The plate was washed and blotted dry as previously described, then prepared TMB substrate (TMB substrate kit, Pierce catalog #34021) (prepared by mixing kit reagents 1:1) (100 μL) was added per well. The plate was incubated for 20-30 minutes at room temperature in the dark, then Stop Solution (2 M sulfuric acid in water) (50 μL) was added per well. The plates were read at OD450 (experimental) and OD570 (reference).

Compared with `COc1ccc(Nc2ccnc(-c3c(C(F)(F)F)nc4ccc(Br)cn34)n2)cc1` [Cpd 33, 2-[6-bromo-2-(trifluoromethyl)imidazo[1,2-a]pyridin-3-yl]-N-(4-methoxyphenyl)pyrimidin-4-amine], `FC(F)(F)c1nc2ccc(Cl)cn2c1-c1nccc(Nc2ccc(Cl)cc2)n1` [Cpd 17, N-(4-chlorophenyl)-2-[6-chloro-2-(trifluoromethyl)imidazo[1,2-a]pyridin-3-yl]pyrimidin-4-amine] is higher in EC50: 10 to 100 nM for the first, 100 to 3000 nM for the second. The first is the more potent here.

Compared with `Cc1nc2ccc(Cl)cc2n1-c1nc(N)cc(Nc2ccc(C(F)(F)F)cc2)n1` [Cpd 93, 2-(6-chloro-2-methyl-1H-benzimidazol-1-yl)-N-[4-(trifluoromethyl)phenyl]pyrimidine-4,6-diamine], `Cc1nc2ccc(Br)cc2n1-c1nc(N)cc(Nc2ccc(C(F)(F)F)cc2)n1` [Cpd 85, 2-(6-bromo-2-methyl-1H-benzimidazol-1-yl)-N-[4-(trifluoromethyl)phenyl]pyrimidine-4,6-diamine] is higher in EC50: 10 to 100 nM for the first, 100 to 3000 nM for the second. The first is the more potent here.

Compared with `Cc1nc2ccccc2n1-c1nc(N)cc(Nc2ccc(C(F)(F)F)cc2)n1` [Cpd 63, 2-(2-methyl-1H-benzimidazol-1-yl)-N-[4-(trifluoromethyl)phenyl]pyrimidine-4,6-diamine], `Cc1nc2ccccc2n1-c1nc(N)cc(Nc2ccc(OC(F)(F)F)cc2)n1` [Cpd 221, 2-(2-methyl-1H-benzimidazol-1-yl)-N-[4-(trifluoromethoxy)phenyl]pyrimidine-4,6-diamine] is higher in EC50: 10 to 100 nM for the first, 100 to 3000 nM for the second.

First: COCc1nc2ccccc2n1-c1nc(N)c(F)c(Nc2ccc(C)cc2)n1 [Cpd 217, 5-fluoro-2-[2-(methoxymethyl)-1H-benzimidazol-1-yl]-N-(4-methylphenyl)pyrimidine-4,6-diamine]
Second: Cc1nc2ccccc2n1-c1nc(N)c(F)c(Nc2ccc(C#N)cc2)n1 [Cpd 202, 4-{[6-amino-5-fluoro-2-(2-methyl-1H-benzimidazol-1-yl)pyrimidin-4-yl]amino}benzonitrile]
The EC50 of the first is lower: 10 to 100 nM for the first, 100 to 3000 nM for the second.

`Cc1nc2ccc(C(F)(F)F)cn2c1-c1nccc(Nc2ccc(C(F)(F)F)cc2)n1` [Cpd 18, 2-[2-methyl-6-(trifluoromethyl)imidazo[1,2-a]pyridin-3-yl]-N-[4-(trifluoromethyl)phenyl]pyrimidin-4-amine] and `FC(F)(F)c1ccc(Nc2ccnc(-c3c(C(F)(F)F)nc4cnccn34)n2)cc1` [Cpd 46, 2-[2-(trifluoromethyl)imidazo[1,2-a]pyrazin-3-yl]-N-[4-(trifluoromethyl)phenyl]pyrimidin-4-amine] fall in the same range of EC50: 100 to 3000 nM for the first, 100 to 3000 nM for the second.

First: Cc1nc2ccc(F)cc2n1-c1nc(N)c(F)c(Nc2ccc(OC(F)(F)F)cc2)n1 [Cpd 191, 5-fluoro-2-(6-fluoro-2-methyl-1H-benzimidazol-1-yl)-N-[4-(trifluoromethoxy)phenyl]pyrimidine-4,6-diamine]
Second: COc1cccc(Nc2nc(-n3c(C)nc4ccc(F)cc43)nc(N)c2F)c1 [Cpd 189, 5-fluoro-2-(6-fluoro-2-methyl-1H-benzimidazol-1-yl)-N-(3-methoxyphenyl)pyrimidine-4,6-diamine]
The EC50 of the first is lower: 10 to 100 nM for the first, 100 to 3000 nM for the second. The first is the more potent here.

First: COc1ccc(Nc2ccnc(-n3c(C)nc4ccccc43)n2)cc1 [Cpd 1, N-(4-methoxyphenyl)-2-(2-methyl-1H-benzimidazol-1-yl)pyrimidin-4-amine]
Second: CC1(c2nc3ccccc3n2-c2nc(N)cc(Nc3ccc(C(F)(F)F)cc3)n2)CC1 [Cpd 147, 2-[2-(1-methylcyclopropyl)-1H-benzimidazol-1-yl]-N-[4-(trifluoromethyl]phenyl]pyrimidine-4,6-diamine]
The EC50 of the first is lower: 10 to 100 nM for the first, 100 to 3000 nM for the second.

`Cc1nc2c(F)cc(F)cc2n1-c1nc(N)cc(Nc2ccc(C(F)(F)F)c(F)c2)n1` [Cpd 89, 2-(4,6-difluoro-2-methyl-1H-benzimidazol-1-yl)-N-[3-fluoro-4-(trifluoromethyl)phenyl]pyrimidine-4,6-diamine] and `Cc1nc2c(F)cc(F)cc2n1-c1nc(NCCO)cc(Nc2ccc(C(F)(F)F)cc2)n1` [Cpd 90, 2-{[2-(4,6-difluoro-2-methyl-1H-benzimidazol-1-yl)-6-{[4-(trifluoromethyl)phenyl]amino}pyrimidin-4-yl]amino}ethanol] fall in the same range of EC50: 100 to 3000 nM for the first, 100 to 3000 nM for the second.

`Nc1cc(Nc2ccc(OC(F)F)cc2)nc(-n2c(C3CC3)nc3ncc(F)cc32)n1` [Cpd 103, 2-(2-cyclopropyl-6-fluoro-1H-imidazo[4,5-b]pyridin-1-yl)-N-[4-(difluoromethoxy)phenyl]pyrimidine-4,6-diamine] and `Cc1nc2cc(F)c(F)cc2n1-c1nc(N)cc(Nc2ccc(OC(F)F)cc2)n1` [Cpd 102, N-[4-(difluoromethoxy)phenyl]-2-(5,6-difluoro-2-methyl-1H-benzimidazol-1-yl)pyrimidine-4,6-diamine] fall in the same range of EC50: 10 to 100 nM for the first, 10 to 100 nM for the second.

First: Nc1cc(Nc2ccc(OC(F)F)cc2)nc(-c2c(C(F)(F)F)nc3ccccn23)n1 [Cpd 65, N-[4-(difluoromethoxy)phenyl]-2-[2-(trifluoromethyl)imidazo[1,2-a]pyridin-3-yl]pyrimidine-4,6-diamine]
Second: CC(C)c1ccc(Nc2ccnc(-c3c(C(F)(F)F)nc4ccccn34)n2)cc1 [Cpd 38, N-[4-(propan-2-yl)phenyl]-2-[2-(trifluoromethyl)imidazo[1,2-a]pyridin-3-yl]pyrimidin-4-amine]
The EC50 of the first is lower: 10 to 100 nM for the first, 100 to 3000 nM for the second.

`CCc1nc2c(F)cc(F)cc2n1-c1nc(N)c(F)c(Nc2ccc(C(F)(F)F)cc2)n1` [Cpd 129, 2-(2-ethyl-4,6-difluoro-1H-benzimidazol-1-yl)-5-fluoro-N-[4-(trifluoromethyl)phenyl]pyrimidine-4,6-diamine] and `Cc1nc2cc(F)cc(F)c2n1-c1nc(N)c(F)c(Nc2ccc(C(F)(F)F)cc2)n1` [Cpd 243, 2-(5,7-difluoro-2-methyl-1H-benzimidazol-1-yl)-5-fluoro-N-[4-(trifluoromethyl)phenyl]pyrimidine-4,6-diamine] fall in the same range of EC50: 10 to 100 nM for the first, 10 to 100 nM for the second.

`FC(F)(F)Oc1ccc(Nc2ccnc(-c3c(C(F)(F)F)nc4ccc(Cl)cn34)n2)cc1` [Cpd 14, 2-[6-chloro-2-(trifluoromethyl)imidazo[1,2-a]pyridin-3-yl]-N-[4-(trifluoromethoxy)phenyl]pyrimidin-4-amine] and `COc1ccc(Nc2ccnc(-c3c(C(F)(F)F)nc4ccccn34)n2)cc1Cl` [Cpd 35, N-(3-chloro-4-methoxyphenyl)-2-[2-(trifluoromethyl)imidazo[1,2-a]pyridin-3-yl]pyrimidin-4-amine] fall in the same range of EC50: 100 to 3000 nM for the first, 100 to 3000 nM for the second.

First: CCc1ccc2nc(C)n(-c3nc(N)cc(Nc4ccc(C(F)(F)F)cc4)n3)c2c1 [Cpd 87, 2-(6-ethyl-2-methyl-1H-benzimidazol-1-yl)-N-[4-(trifluoromethyl)phenyl]pyrimidine-4,6-diamine]
Second: Nc1cc(Nc2ccc(C(F)(F)F)cc2)nc(-n2c(C3CC3)nc3ccc(F)cc32)n1 [Cpd 82, 2-(2-cyclopropyl-6-fluoro-1H-benzimidazol-1-yl)-N-[4-(trifluoromethyl)phenyl]pyrimidine-4,6-diamine]
The EC50 of the first is higher: 100 to 3000 nM for the first, 10 to 100 nM for the second. The second is the more potent here.

First: Cc1nc2ccc([N+](=O)[O-])cc2n1-c1nc(N)c(F)c(Nc2ccc(OC(F)F)cc2)n1 [Cpd 231, N-[4-(difluoromethoxy)phenyl]-5-fluoro-2-(2-methyl-6-nitro-1H-benzimidazol-1-yl)pyrimidine-4,6-diamine]
Second: CCc1nc2ccccc2n1-c1nc(N)cc(Nc2ccc(OC(F)F)c(F)c2)n1 [Cpd 157, N-[4-(difluoromethoxy)-3-fluorophenyl]-2-(2-ethyl-1H-benzimidazol-1-yl)pyrimidine-4,6-diamine]
The EC50 of the first is higher: 100 to 3000 nM for the first, 10 to 100 nM for the second. The second is the more potent here.
